In patent US20240109865A1, “INDAZOLE COMPOUNDS AS KINASE INHIBITORS” (TYRA BIOSCIENCES, INC., priority 2020, published 2024):
Like-named read-outs stand apart in the source and are kept apart here.

Experiments:
[1] = molecular target: FGFR1-BCR Ba/F3 cells (Homo sapiens, UniProt P11362); test: Ba/F3 cell viability assay (CellTiter-Glo 2.0), FGFR1-BCR Ba/F3; assay type: cell-based; conditions: read-out: Ba/F3 Cells FGFR1 (IC50 nM), 48 hours, Cell Titer Glo 2.0
Outline: (§1)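 Viability read as ATP luminescence (CellTiter-Glo 2.0) after 48 h compound exposure, normalized to DMSO-treated cells and fitted with a 4-parameter curve for IC50. Cells: Ba/F3 dependent on FGFR1-BCR or FGFR3-BAIAP2L1 fusion kinase; top dose 30 μM, 10-fold steps, 9 doses in triplicate.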

[2] = tested on: KG-1 cells (FGFR1-fusion); test: KG-1 cancer cell line cell viability assay (CellTiter-Glo 2.0); assay type: cell-based; conditions: Homo sapiens, 72 hours, Cell Titer Glo 2.0
Description: (§2) Experimental Purpose: To detect the change of intracellular ATP by Cell Titer-Glo® and to evaluate the inhibitory effect of the compounds on cancer cell lines by determining the in vitro IC50 value of the compounds.
(§3) Cell Titer-Glo® 2.0 Luminescent cell viability assay reagent was purchased from Promega (Madison, WI). RT112/84 and KG-1 cell lines were purchased from American Type Culture Collection (Manassas, VA). UM-UC-14 cell line was purchased from Sigma (St. Louis, MO). RT112/84, UM-UC-14, and KG-1 cells were cultured in RPMI1640 media supplemented with 10% fetal bovine serum. Cultures were maintained at 37° C. in a humidified atmosphere of 5% C02 and 95% air.
(§4) Cell Viability Assay Procedure: Cells were plated in 96-well clear bottom/white plates (Corning #3903) at 10,000 cells/well in 100 μl of media, incubated overnight. The next day, test compound DMSO stock solutions were made at 10 mM and 2 μM final concentration. Compounds were then added to cells in a 9-dose, 10-fold dilution series starting at 30 μM with an HP 300e Digital Dispenser (each dose was applied in triplicate). DMSO was backfilled to each well up to 301 nL total volume of test compound+DMSO, and a total of 301 nL DMSO was added to a control/no test compound well in triplicate. The cells in cell culture plates were incubated with the compounds at 37° C. and 5% C02 for 72 hours. Then 50 μl of Cell Titer Glo 2.0 reagent was added to each well of the cell culture plates. The contents were covered from light and mixed on an orbital shaker at room temperature for 10 min. Luminescence was recorded by a Synergy H1 Microplate Reader (Biotek, Winooski, VT). Cells were assessed as a percentage of DMSO only treated control cells. Curves were plotted and IC50 values were calculated using the GraphPad Prism 8 program based on a sigmoidal dose-response equation (4 parameter).

[3] = molecular target: FGFR3-BAIAP2L1 Ba/F3 cells (Homo sapiens, UniProt P22607); test: Ba/F3 cell viability assay (CellTiter-Glo 2.0), FGFR3-BAIAP2L1 Ba/F3; assay type: cell-based; conditions: for Ba/F3 FGFR1/FGFR3 Selectivity: FGFR3 > FGFR1 selectivity ratio in Ba/F3 FGFR fusion cell based assays; for IC50: read-out: Ba/F3 Cells FGFR3 (IC50 nM), FGFR3-BAIAP2L1 Ba/F3 cells, 48 hours, Cell Titer Glo 2.0
Outline: as §1

[4] = tested on: RT112/84 cells (FGFR3-fusion); test: RT112/84 cancer cell line cell viability assay (CellTiter-Glo 2.0); assay type: cell-based; conditions: Homo sapiens, 72 hours, Cell Titer Glo 2.0
Description: as §2, §3, §4

[5] = molecular target: FGFR3 (V555M) (Homo sapiens (Human), UniProt P22607, V555M); test: Kinase assay, binding constants (Kd), kinase-tagged T7 phage, qPCR; conditions: V555M mutant
Outline: (§5)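 Kinase-tagged T7 phage (grown in BL21-derived E. coli) competed with test compound for immobilized biotinylated ligand on streptavidin beads. Kds came from an 11-point 3-fold dilution series at 0.9% final DMSO. Bound kinase was eluted with non-biotinylated ligand and quantified by qPCR, with Hill slope fixed at −1.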

[6] = molecular target: FGFR3 (Homo sapiens (Human), UniProt P22607); test: as above
Outline: as §5

[7] = molecular target: FGFR4 (Homo sapiens (Human), UniProt P22455); test: as above
Outline: as §5

[8] = molecular target: FGFR1 (Homo sapiens (Human), UniProt P11362); test: as above
Outline: as §5

[9] = molecular target: FGFR2 (Homo sapiens (Human), UniProt P21802); test: as above
Outline: as §5

FGFR4, sequence (P22455 22-802): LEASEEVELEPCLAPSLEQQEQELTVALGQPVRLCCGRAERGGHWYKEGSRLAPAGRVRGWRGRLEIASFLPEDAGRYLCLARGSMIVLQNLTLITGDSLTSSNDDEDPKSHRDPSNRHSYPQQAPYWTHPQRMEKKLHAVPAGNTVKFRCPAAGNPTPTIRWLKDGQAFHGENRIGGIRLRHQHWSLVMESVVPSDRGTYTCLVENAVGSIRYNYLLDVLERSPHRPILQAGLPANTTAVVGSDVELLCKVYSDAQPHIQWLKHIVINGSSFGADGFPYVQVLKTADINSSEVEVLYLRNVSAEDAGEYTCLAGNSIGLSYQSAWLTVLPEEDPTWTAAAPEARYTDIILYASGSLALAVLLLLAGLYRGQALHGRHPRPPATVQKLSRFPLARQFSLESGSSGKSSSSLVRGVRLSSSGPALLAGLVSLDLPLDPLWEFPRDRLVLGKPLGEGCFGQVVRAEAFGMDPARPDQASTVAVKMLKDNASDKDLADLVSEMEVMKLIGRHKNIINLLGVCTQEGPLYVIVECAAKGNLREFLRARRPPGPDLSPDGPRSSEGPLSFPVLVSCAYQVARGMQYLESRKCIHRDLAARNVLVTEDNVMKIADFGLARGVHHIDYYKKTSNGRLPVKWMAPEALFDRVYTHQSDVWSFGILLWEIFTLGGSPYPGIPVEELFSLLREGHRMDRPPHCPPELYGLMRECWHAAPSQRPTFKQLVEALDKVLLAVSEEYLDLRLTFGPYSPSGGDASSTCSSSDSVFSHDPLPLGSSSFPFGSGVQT
FGFR2, sequence (P21802 22-821): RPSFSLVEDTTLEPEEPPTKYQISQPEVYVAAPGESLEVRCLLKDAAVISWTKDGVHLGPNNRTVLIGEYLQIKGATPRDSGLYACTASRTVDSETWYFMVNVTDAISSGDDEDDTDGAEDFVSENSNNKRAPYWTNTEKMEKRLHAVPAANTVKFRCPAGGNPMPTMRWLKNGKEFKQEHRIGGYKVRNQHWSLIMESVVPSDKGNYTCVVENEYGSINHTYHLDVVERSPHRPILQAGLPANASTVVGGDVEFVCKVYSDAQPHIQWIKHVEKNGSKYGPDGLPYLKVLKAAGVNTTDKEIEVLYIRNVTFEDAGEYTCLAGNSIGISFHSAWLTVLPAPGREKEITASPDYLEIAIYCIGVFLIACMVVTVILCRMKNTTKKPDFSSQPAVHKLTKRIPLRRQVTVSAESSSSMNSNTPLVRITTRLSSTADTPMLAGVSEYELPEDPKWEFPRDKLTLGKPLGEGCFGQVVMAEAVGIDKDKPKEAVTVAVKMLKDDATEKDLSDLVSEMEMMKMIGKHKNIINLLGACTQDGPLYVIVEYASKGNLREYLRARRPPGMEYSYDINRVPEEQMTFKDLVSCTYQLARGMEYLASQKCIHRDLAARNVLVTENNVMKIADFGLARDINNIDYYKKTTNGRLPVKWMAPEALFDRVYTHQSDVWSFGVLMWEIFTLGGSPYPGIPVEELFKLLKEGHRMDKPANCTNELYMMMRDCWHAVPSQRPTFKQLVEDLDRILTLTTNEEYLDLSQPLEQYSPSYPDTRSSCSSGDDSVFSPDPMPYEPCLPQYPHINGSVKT
FGFR3-BAIAP2L1 Ba/F3 cells, sequence (P22607 23-806 limits assumed, change not shown): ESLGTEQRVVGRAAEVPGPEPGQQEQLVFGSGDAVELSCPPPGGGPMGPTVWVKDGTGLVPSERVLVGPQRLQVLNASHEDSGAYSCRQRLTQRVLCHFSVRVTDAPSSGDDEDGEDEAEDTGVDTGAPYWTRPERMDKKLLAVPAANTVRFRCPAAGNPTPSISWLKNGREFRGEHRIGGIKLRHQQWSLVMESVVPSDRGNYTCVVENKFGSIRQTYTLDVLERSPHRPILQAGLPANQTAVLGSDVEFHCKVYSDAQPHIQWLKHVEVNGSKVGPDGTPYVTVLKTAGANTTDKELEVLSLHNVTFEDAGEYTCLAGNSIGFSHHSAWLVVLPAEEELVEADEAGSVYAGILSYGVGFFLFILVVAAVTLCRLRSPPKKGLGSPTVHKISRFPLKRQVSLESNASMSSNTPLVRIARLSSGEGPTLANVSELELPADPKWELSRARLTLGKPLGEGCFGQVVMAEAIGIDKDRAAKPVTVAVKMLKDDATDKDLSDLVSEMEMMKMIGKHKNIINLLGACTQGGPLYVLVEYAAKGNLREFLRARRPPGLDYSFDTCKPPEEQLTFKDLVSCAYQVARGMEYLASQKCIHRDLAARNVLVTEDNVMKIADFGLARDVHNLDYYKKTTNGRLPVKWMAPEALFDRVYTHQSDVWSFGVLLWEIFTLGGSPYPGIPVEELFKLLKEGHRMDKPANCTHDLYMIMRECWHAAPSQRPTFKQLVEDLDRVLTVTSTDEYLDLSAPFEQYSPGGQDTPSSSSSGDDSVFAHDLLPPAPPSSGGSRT
FGFR3, sequence (P22607 23-806): as the sequence (P22607 23-806 limits assumed, change not shown) above
FGFR3 (V555M), sequence (P22607 23-806 V555M): as the sequence (P22607 23-806 limits assumed, change not shown) above, with V533M counted along it
FGFR1, sequence (P11362 22-822): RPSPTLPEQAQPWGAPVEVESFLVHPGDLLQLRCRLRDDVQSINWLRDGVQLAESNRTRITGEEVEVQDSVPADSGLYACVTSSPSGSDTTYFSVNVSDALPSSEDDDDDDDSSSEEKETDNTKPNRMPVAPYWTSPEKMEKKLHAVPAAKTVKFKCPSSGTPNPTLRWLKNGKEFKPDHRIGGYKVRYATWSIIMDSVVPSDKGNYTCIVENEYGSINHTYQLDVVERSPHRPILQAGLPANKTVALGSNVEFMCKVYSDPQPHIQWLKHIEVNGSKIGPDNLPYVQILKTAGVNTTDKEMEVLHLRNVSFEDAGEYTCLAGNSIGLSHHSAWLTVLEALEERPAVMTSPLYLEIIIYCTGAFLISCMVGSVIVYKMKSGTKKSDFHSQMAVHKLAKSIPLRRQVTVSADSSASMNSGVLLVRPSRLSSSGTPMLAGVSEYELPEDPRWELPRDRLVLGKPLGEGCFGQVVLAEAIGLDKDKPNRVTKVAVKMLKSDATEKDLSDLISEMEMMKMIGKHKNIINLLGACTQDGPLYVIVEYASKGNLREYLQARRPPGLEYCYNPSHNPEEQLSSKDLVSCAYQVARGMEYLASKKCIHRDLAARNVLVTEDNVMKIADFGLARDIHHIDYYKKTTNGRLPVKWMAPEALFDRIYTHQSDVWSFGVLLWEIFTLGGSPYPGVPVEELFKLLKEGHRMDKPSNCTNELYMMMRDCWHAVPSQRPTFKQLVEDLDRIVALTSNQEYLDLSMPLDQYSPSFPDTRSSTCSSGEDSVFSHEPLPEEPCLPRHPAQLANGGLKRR
FGFR1-BCR Ba/F3 cells, sequence (P11362 22-822 limits assumed, change not shown): as the sequence (P11362 22-822) above

SMILES: C[C@@H](Oc1ccc2[nH]nc(-c3cnc(N4CCC5(CC4)CCS(=O)(=O)C5)c(F)c3)c2c1)c1c(Cl)cncc1Cl [Example 77, 8-[5-[5-[(1R)-1-(3,5-dichloro-4-pyridyl)ethoxy]-1H-indazol-3-yl]-3-fluoro-2-pyridyl]-2λ^6-thia-8-azaspiro[4.5]decane 2,2-dioxide]
- IC50 [1]: 100 to 300 nM
- IC50 [2]: 100 to 300 nM
- Ba/F3 FGFR1/FGFR3 Selectivity [3]: 14
- IC50 [3]: 1 to 20 nM
- IC50 [4]: 1 to 20 nM
- Kd [5]: 1 to 20 nM
- Kd [6]: 1 to 20 nM
- Kd [7]: 1 to 20 nM
- Kd [8]: 1 to 20 nM
- Kd [9]: 20 to 100 nM

SMILES: C[C@@H](Oc1ccc2[nH]nc(-c3cnn(C4CCN(C5COC5)CC4)c3)c2c1)c1c(Cl)cncc1Cl [Example 87, 5-[(1R)-1-(3,5-dichloro-4-pyridyl)ethoxy]-3-[1-[1-(oxetan-3-yl)-4-piperidyl]pyrazol-4-yl]-1H-indazole]
- IC50 [1]: 20 to 100 nM
- IC50 [2]: 20 to 100 nM
- Ba/F3 FGFR1/FGFR3 Selectivity [3]: 17
- IC50 [3]: 1 to 20 nM
- IC50 [4]: 1 to 20 nM
- Kd [5]: 1 to 20 nM
- Kd [6]: 1 to 20 nM
- Kd [7]: 20 to 100 nM
- Kd [8]: 1 to 20 nM
- Kd [9]: 1 to 20 nM

SMILES: C[C@@H](Oc1ccc2[nH]nc(-c3cnn([C@H]4CCNC4)c3)c2c1)c1c(Cl)cncc1Cl [Example 88, 5-[(1R)-1-(3,5-dichloro-4-pyridyl)ethoxy]-3-[1-[(3S)-pyrrolidin-3-yl]pyrazol-4-yl]-1H-indazole]
- IC50 [1]: 100 to 300 nM
- IC50 [2]: 100 to 300 nM
- Ba/F3 FGFR1/FGFR3 Selectivity [3]: 20
- IC50 [3]: 1 to 20 nM
- IC50 [4]: 20 to 100 nM
- Kd [5]: 1 to 20 nM
- Kd [6]: 1 to 20 nM
- Kd [7]: 20 to 100 nM
- Kd [8]: 1 to 20 nM
- Kd [9]: 1 to 20 nM

SMILES: Cc1ncc(Cl)c([C@@H](C)Oc2ccc3[nH]nc(-c4cnn(C5CCN(C(C)C)CC5)c4)c3c2)c1Cl [Example 93, 5-[(1R)-1-(3,5-dichloro-2-methyl-4-pyridyl)ethoxy]-3-[1-(1-isopropyl-4-piperidyl)pyrazol-4-yl]-1H-indazole]
- IC50 [1]: 100 to 300 nM
- IC50 [2]: 100 to 300 nM
- Ba/F3 FGFR1/FGFR3 Selectivity [3]: 11
- IC50 [3]: 20 to 100 nM
- IC50 [4]: 1 to 20 nM
- Kd [5]: 1 to 20 nM
- Kd [6]: 1 to 20 nM
- Kd [7]: 20 to 100 nM
- Kd [8]: 1 to 20 nM
- Kd [9]: 1 to 20 nM

SMILES: Cc1ncc(Cl)c([C@@H](C)Oc2ccc3[nH]nc(-c4cnn(C5CCN(C6COC6)CC5)c4)c3c2)c1Cl [Example 94, 5-[(1R)-1-(3,5-dichloro-2-methyl-4-pyridyl)ethoxy]-3-[1-[1-(oxetan-3-yl)-4-piperidyl]pyrazol-4-yl]-1H-indazole]
- IC50 [1]: 100 to 300 nM
- IC50 [2]: 100 to 300 nM
- Ba/F3 FGFR1/FGFR3 Selectivity [3]: 11
- IC50 ([3]; given as a number): 15 nM
- IC50 [4]: 1 to 20 nM
- Kd [5]: 1 to 20 nM
- Kd [6]: 1 to 20 nM
- Kd [7]: 20 to 100 nM
- Kd [8]: 20 to 100 nM
- Kd [9]: 1 to 20 nM

SMILES: Cc1ncc(Cl)c([C@@H](C)Oc2ccc3[nH]nc(-c4cnn(C5CCN(C6CCC6)CC5)c4)c3c2)c1Cl [Example 95, 3-[1-(1-cyclobutyl-4-piperidyl)pyrazol-4-yl]-5-[(1R)-1-(3,5-dichloro-2-methyl-4-pyridyl)ethoxy]-1H-indazole]
- IC50 [1]: > 300 nM
- IC50 [2]: 100 to 300 nM
- Ba/F3 FGFR1/FGFR3 Selectivity [3]: 14
- IC50 [3]: 20 to 100 nM
- IC50 [4]: 20 to 100 nM
- Kd [5]: 1 to 20 nM
- Kd [6]: 1 to 20 nM
- Kd [7]: 20 to 100 nM
- Kd [8]: 1 to 20 nM
- Kd [9]: 1 to 20 nM

SMILES: C[C@@H](Oc1ccc2[nH]nc(-c3ccc(N4CC5(CCN5C)C4)nc3)c2c1)c1c(Cl)cncc1Cl [Example 96, 5-[(1R)-1-(3,5-dichloro-4-pyridyl)ethoxy]-3-[6-(1-methyl-1,6-diazaspiro[3.3]heptan-6-yl)-3-pyridyl]-1H-indazole]
- IC50 [1]: 20 to 100 nM
- IC50 [2]: 20 to 100 nM
- Ba/F3 FGFR1/FGFR3 Selectivity [3]: 13
- IC50 [3]: 1 to 20 nM
- IC50 [4]: 1 to 20 nM
- Kd [5]: 1 to 20 nM
- Kd [6]: 1 to 20 nM
- Kd [7]: 1 to 20 nM
- Kd [8]: 1 to 20 nM
- Kd [9]: 1 to 20 nM

SMILES: C[C@@H](Oc1ccc2[nH]nc(-c3ccc(N4CCC5(CC4)CN(C)CC(=O)N5)nc3)c2c1)c1c(Cl)cncc1Cl [Example 97, 9-[5-[5-[(1R)-1-(3,5-dichloro-4-pyridyl)ethoxy]-1H-indazol-3-yl]-2-pyridyl]-4-methyl-1,4,9-triazaspiro[5.5]undecan-2-one]
- IC50 [1]: 20 to 100 nM
- IC50 [2]: 20 to 100 nM
- Ba/F3 FGFR1/FGFR3 Selectivity [3]: 15
- IC50 [3]: 1 to 20 nM
- IC50 [4]: 1 to 20 nM
- Kd [5]: 1 to 20 nM
- Kd [6]: 1 to 20 nM
- Kd [7]: 1 to 20 nM
- Kd [8]: 1 to 20 nM
- Kd [9]: 1 to 20 nM

SMILES: C[C@@H](Oc1ccc2[nH]nc(-c3ccc(N4CCC5(CC4)CN(C)CC(=O)N5C)nc3)c2c1)c1c(Cl)cncc1Cl [Example 98, 9-[5-[5-[(1R)-1-(3,5-dichloro-4-pyridyl)ethoxy]-1H-indazol-3-yl]-2-pyridyl]-1,4-dimethyl-1,4,9-triazaspiro[5.5]undecan-2-one]
- IC50 [1]: 20 to 100 nM
- IC50 [2]: 20 to 100 nM
- Ba/F3 FGFR1/FGFR3 Selectivity [3]: 24
- IC50 [3]: 1 to 20 nM
- IC50 [4]: 1 to 20 nM
- Kd [5]: 1 to 20 nM
- Kd [6]: 1 to 20 nM
- Kd [7]: 1 to 20 nM
- Kd [8]: 1 to 20 nM
- Kd [9]: 1 to 20 nM

SMILES: C[C@@H](Oc1ccc2[nH]nc(-c3cnn(C4CCOCC4)c3)c2c1)c1c(Cl)cncc1Cl [Example 106, 5-[(1R)-1-(3,5-dichloro-4-pyridyl)ethoxy]-3-(1-tetrahydropyran-4-ylpyrazol-4-yl)-1H-indazole]
- IC50 [1]: 100 to 300 nM
- IC50 [2]: 100 to 300 nM
- Ba/F3 FGFR1/FGFR3 Selectivity [3]: 11
- IC50 [3]: 1 to 20 nM
- IC50 [4]: 1 to 20 nM
- Kd [5]: 1 to 20 nM
- Kd [6]: 1 to 20 nM
- Kd [7]: 1 to 20 nM
- Kd [8]: 1 to 20 nM
- Kd [9]: 1 to 20 nM

SMILES: Cc1ncc(Cl)c([C@@H](C)Oc2ccc3[nH]nc(-c4ccc(N5CC6(C5)CN(S(C)(=O)=O)C6)nc4)c3c2)c1Cl [Example 107, 5-[(1R)-1-(3,5-dichloro-2-methyl-4-pyridyl)ethoxy]-3-[6-(2-methylsulfonyl-2,6-diazaspiro[3.3]heptan-6-yl)-3-pyridyl]-1H-indazole]
- IC50 [1]: 100 to 300 nM
- IC50 [2]: 100 to 300 nM
- Ba/F3 FGFR1/FGFR3 Selectivity [3]: 16
- IC50 [3]: 1 to 20 nM
- IC50 [4]: 20 to 100 nM
- Kd [5]: 1 to 20 nM
- Kd [6]: 1 to 20 nM
- Kd [7]: 1 to 20 nM
- Kd [8]: 20 to 100 nM
- Kd [9]: 20 to 100 nM

SMILES: CC(Oc1ccc2[nH]nc(-c3ccc(N4CC5(C4)CN(S(C)(=O)=O)C5)nc3)c2c1)c1c(Cl)ccnc1Cl (stereo not shown) [Example 109, 5-[1-(2,4-dichloro-3-pyridyl)ethoxy]-3-[6-(2-methylsulfonyl-2,6-diazaspiro[3.3]heptan-6-yl)-3-pyridyl]-1H-indazole]
- IC50 [1]: 100 to 300 nM
- IC50 [2]: 100 to 300 nM
- Ba/F3 FGFR1/FGFR3 Selectivity [3]: 12
- IC50 [3]: 1 to 20 nM
- IC50 [4]: 20 to 100 nM
- Kd [5]: 1 to 20 nM
- Kd [6]: 1 to 20 nM
- Kd [7]: 1 to 20 nM
- Kd [8]: 20 to 100 nM
- Kd [9]: 1 to 20 nM

SMILES: C[C@@H](Oc1ccc2[nH]nc(-c3ccc(N4CC5(CCN(S(C)(=O)=O)C5)C4)nc3)c2c1)c1c(Cl)cncc1Cl [Example 115, 5-[(1R)-1-(3,5-dichloro-4-pyridyl)ethoxy]-3-[6-(7-methylsulfonyl-2,7-diazaspiro[3.4]octan-2-yl)-3-pyridyl]-1H-indazole]
- IC50 [1]: 20 to 100 nM
- IC50 [2]: 100 to 300 nM
- Ba/F3 FGFR1/FGFR3 Selectivity [3]: 14
- IC50 [3]: 1 to 20 nM
- IC50 [4]: 1 to 20 nM
- Kd [5]: 1 to 20 nM
- Kd [6]: 1 to 20 nM
- Kd [7]: 1 to 20 nM
- Kd [8]: 1 to 20 nM
- Kd [9]: 1 to 20 nM
